According to publication PMC3263330 (2011):
Changes are numbered by the printed parent chain.

Legend:
[1] = biological target: T1, aryl hydrocarbon receptor (mAhR) (Mus musculus, UniProt P30561); experiment: [3H]TCDD; assay type: binding
T1 sequence (P30561 10-848): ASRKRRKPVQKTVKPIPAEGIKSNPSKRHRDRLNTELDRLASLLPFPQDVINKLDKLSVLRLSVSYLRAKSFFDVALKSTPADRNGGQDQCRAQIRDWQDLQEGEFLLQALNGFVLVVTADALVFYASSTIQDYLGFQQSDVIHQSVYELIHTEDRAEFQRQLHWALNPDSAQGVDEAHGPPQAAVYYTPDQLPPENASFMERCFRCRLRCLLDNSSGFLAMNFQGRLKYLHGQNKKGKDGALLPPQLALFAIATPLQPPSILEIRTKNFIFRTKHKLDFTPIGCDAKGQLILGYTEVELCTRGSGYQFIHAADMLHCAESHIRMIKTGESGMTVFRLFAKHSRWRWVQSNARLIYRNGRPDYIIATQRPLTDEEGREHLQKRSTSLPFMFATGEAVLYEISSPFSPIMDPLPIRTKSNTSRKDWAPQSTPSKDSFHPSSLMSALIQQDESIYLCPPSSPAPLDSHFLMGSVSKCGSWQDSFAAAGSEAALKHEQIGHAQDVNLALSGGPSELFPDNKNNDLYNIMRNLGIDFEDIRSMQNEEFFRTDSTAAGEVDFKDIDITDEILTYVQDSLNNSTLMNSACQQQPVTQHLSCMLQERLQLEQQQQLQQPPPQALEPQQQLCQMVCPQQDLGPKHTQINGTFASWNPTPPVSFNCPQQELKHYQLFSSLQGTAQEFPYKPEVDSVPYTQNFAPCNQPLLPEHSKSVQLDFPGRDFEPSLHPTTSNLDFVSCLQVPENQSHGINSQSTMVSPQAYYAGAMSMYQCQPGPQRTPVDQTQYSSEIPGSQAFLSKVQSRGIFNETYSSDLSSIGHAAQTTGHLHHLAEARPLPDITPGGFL

[2] = biological target: T2, aryl hydrocarbon receptor (mAhR) (Mus musculus, UniProt P30561, S359A); experiment: [3H]TCDD specific binding, hydroxyapatite assay
T2 sequence (P30561 10-848 S359A): T1 sequence (P30561 10-848) with S350A

[3] = biological target: T1, aryl hydrocarbon receptor (mAhR); experiment: competitive [3H]TCDD hydroxyapatite radioligand binding assay; details: read-out: Experimental IC50 (M), in vitro synthesized mAhR

| Compound | [3H]TCDD (2 nM) specific binding, hydroxyapatite assay [1] | % reduction of binding vs wild type [2] | IC50 [3] [M] |
| --- | --- | --- | --- |
| Clc1cc2c(cc1Cl)Oc1cc(Cl)c(Cl)cc1O2 [TCDD, 2,3,7,8-tetrachlorodibenzo-p-dioxin] | THS compounds displace [^3H]TCDD from the in vitro synthesized AhR in concentration-dependent manner. | ~ 40 % reduction of binding vs wild type | – |
| O=[N+]([O-])c1cc(C(F)(F)F)ccc1NCc1ccco1 [THS-020] | – | – | 4.2e-06 |
